Where “and” joins values, the source holds several entries; their conditions need not be identical. Equal entries are not always repeated.
What was measured:
NF-κB target genes = assay: LPS-induced acute inflammation, qRT-PCR of NF-κB target genes in lung and liver; assay type: in vivo, mouse
Experimental: Fig 6 Newly identified NBD mimetics suppress LPS-induced acute inflammation in vivo. (A) The bioavailability property of SR12460, SR12343, SR12454, and SR11481. Concentrations of NBD mimetics were determined in plasma, brain, muscle, spleen, and liver 2 h post a single i.p. injection of 10 mg/kg of drugs; n = 3 per group. (B) Shown is the model to induce LPS-mediated acute inflammation and the treatment regimen with NBD mimetics. Mouse image via http://www.clker.com/clipart-mice-blank.html (copyright-free). (C) NBD mimetics suppressed LPS-induced acute inflammation in liver and lung by down-regulating NF-κB target gene expression. Vehicle, SR12343, SR12460, and 8K-NBD peptide were dosed at 10 mg/kg 30 min prior to the LPS treatment. Acute inflammation was induced by i.p. injection of 10 mg/kg LPS. Lung and liver were collected 2–4 h post injection, and mRNA was extracted for qRT-PCR analysis. (D, E) Western blot analysis was performed to probe for the expression of p-IκBα and COX-2 at protein level in liver and lung tissues. (F) Serum levels of IL-6 were determine by ELISA. n = 3–8 each group. *P < 0.05, **P < 0.01. Underlying data can be found in S1 Data. COX-2, cyclooxygenase 2; IL-6, interleukin 6; i.p., intraperitoneal; LPS, lipopolysaccharide; NBD, NEMO-binding domain; n.d., nondetectable; NEMO, NF-κB essential modulator; NF-κB, nuclear factor κB; qRT-PCR, quantitative real-time polymerase chain reaction. TEXT PRINTED IN THE PICTURE: (A) SR11481: Concentration (ng/ml): n.d. (plasma)
To determine their NF-κB inhibitory effects in vivo, SR12343 and SR12460 were tested in an acute model of LPS-induced systemic endotoxemia. C57BL/6J mice were pretreated with vehicle control, 8K-NBD peptide, or NBD mimetics at 10 mg/kg for 30 min, followed by LPS induction at 10 mg/kg (Fig 6B). Lung and liver were harvested 2–4 h post treatment for qRT-PCR analysis of NF-κB target genes. […] Despite lower plasma and tissue concentrations of SR12343 compared to SR12460, its inhibition of NF-κB/IKK in liver and lung were greater than that of SR12460 (Fig 6C). Similarly, acute treatment with SR12343 also affected the LPS-induced expression of NF-κB target genes at protein level. The extent of phosphorylation of IκBα and the levels of COX-2 were reduced in lung and liver tissues treated with SR12343 (Fig 6D and 6E). […] However, no significant differences in lung histopathology were observed. Finally, there was a slight reduction in the number of white blood cells and neutrophils in the SR12343-treated group (Table 2).
LPS (strain O111:B4) was prepared in PBS at a sublethal dose of 10 mg/kg. Female WT mice 8 to 10 wk old (20–30 g) were dosed by i.p. injection with vehicle, NBD peptide (10 mg/kg), or small molecules (10 mg/kg) for 30 min, followed by i.p. injection of saline (1 mL/kg) or LPS (10 mg/kg). Mice were euthanized 2 to 4 h post treatment, and lung and liver tissues were collected for further analysis.
Snap-frozen tissues were preserved in RNAlater RNA stabilization solution (ThermoFisher). Total RNA was extracted from cells or tissues by using TRIZOL reagent (Life Technologies), and 1,500 ng of mRNA was subjected to synthesis of cDNA using SuperScript VILO cDNA synthesis kit. qRT-PCR was performed in a StepOnePlus Real-Time PCR system using Platinum SYBR Green qPCR SuperMix-UDG (ThermoFisher). Target gene expression was calculated using the comparative CT method (ΔΔCT) by normalizing to an internal control gene Actb (β-actin). […]

NF-κB activation = assay: Dual-luciferase (NF-κB firefly/SV40-Renilla) reporter assay, TNF-α-stimulated HEK293 cells; assay type: cell-based, human; settings: for Relative luciferase activity (NF-κB/Renilla): Fig 4B, CTRL about 1; for NF-κB luciferase activity, dose-dependent curve: Fig S1A, CTRL about 100; for IC50: Homo sapiens, HEK293, luciferase assays at 0, 25, 50, 100, 150 μM, GraphPad, read-out: IC50 of inhibition of TNF-α-mediated NF-κB activation
[1] = Fig 6C, 10 mg/kg 30 min before LPS 10 mg/kg i.p., 2-4 h, single mice

Structure (SMILES) | NF-κB transcriptional activity in lung (iNOS, IκBα, COX-2, IL-6) (NF-κB target genes; 10 mg/kg, LPS 10 mg/kg) | ikBa mRNA in liver (qRT-PCR, relative to vehicle) (NF-κB target genes; [1]) | ikBa mRNA in lung (qRT-PCR, relative to vehicle) (NF-κB target genes; [1]) | Relative luciferase activity (NF-κB/Renilla) (NF-κB activation; 25 μM) | Relative luciferase activity (NF-κB/Renilla) (NF-κB activation; 50 μM) | Relative luciferase activity (NF-κB/Renilla) (NF-κB activation; 100 μM) | NF-κB luciferase activity, dose-dependent curve (NF-κB activation; 25 μM) | NF-κB luciferase activity, dose-dependent curve (NF-κB activation; 50 μM) | NF-κB luciferase activity, dose-dependent curve (NF-κB activation; 100 μM) | IC50 (NF-κB activation) | iNOS mRNA in lung (qRT-PCR, relative to vehicle) (NF-κB target genes; [1]) | Relative luciferase activity (NF-κB/Renilla) (NF-κB activation; 150 μM) | NF-κB luciferase activity, dose-dependent curve (NF-κB activation; 150 μM)
O=C(CNc1ccc(Cl)cn1)NCCc1cccc(Br)c1 [SR12343] | significantly inhibit | 1.072 and 1.242 and 1.317 and 1.467 and 0.7748 and 0.7346 and 1.371 | 0.8689 and 0.6292 and 0.6865 and 0.9681 and 0.6797 and 1.015 and 0.7177 | 0.621 and 0.6268 and 0.6057 | 0.3824 and 0.4086 and 0.3925 | 0.327 and 0.2292 and 0.2181 | 62 and 63 and 60 | 38 and 41 and 39 | 33 and 23 and 22 | 37 µM |  |  | 
O=C(CNCCc1cc(F)cc(F)c1)Nc1ccc(Cl)cn1 [SR12460] |  |  | 0.8864 and 1.179 and 0.7265 and 0.7577 and 0.6496 and 0.9355 and 0.7819 | 0.1864 and 0.2241 and 0.2663 | 0.09822 and 0.1016 and 0.1003 | 0.1076 and 0.0851 and 0.1209 | 18.6398 and 22.411 and 26.6317 | 9.822 and 10.1552 and 10.0281 | 10.7557 and 8.5097 and 12.0922 | 11.3 µM | 0.4025 and 0.5396 and 0.4809 and 0.7846 and 0.6512 and 0.5854 and 0.4587 and 0.5387 | 0.09311 and 0.129 and 0.1129 | 9.311 and 12.8976 and 11.2908

— PMC6013238, “Development of novel NEMO-binding domain mimetics for inhibiting IKK/NF-κB activation” (PLoS Biology, 2018)
